Results as given in US20230301998A1, “METHODS AND COMPOSITIONS FOR INDUCTION OF ANTITUMOR IMMUNITY” (Sanford Burnham Prebys Medical Discovery Institute, priority 2020, published 2023).

Test system: Nlrc5 and Nlrc5 target genes
Assay: Expression of antigen presentation genes / surface MHCI in B16 cells
Format: cell-based, mouse
Conditions: B16 cells, MTA 100 μM for 24 hr, qPCR (FIG. 14E)

CSC[C@H]1O[C@@H](n2cnc3c(N)ncnc32)[C@H](O)[C@@H]1O [MTA]
basal Nlrc5 expression and that of Nlrc5 target genes (Tap1, B2m, Psmb9): increased
